In test [1] the test system is PDF1.2 mRNA. Kind of test: MeJA treatment of plants, RNA gel blot of JA-responsive PDF1.2 mRNA. Type of test: in vivo, Arabidopsis.
Test [2] deals with THI2.1 mRNA. Briefly: MeJA treatment of plants, RNA gel blot of JA-responsive THI2.1 mRNA. Type of test: in vivo, Arabidopsis. The note with it: for THI2.1 mRNA accumulation after MeJA treatment: not shown.
Where [3] appears, read: nahG expressing wild type plants.

As to `CC/C=C\CC1C(=O)CCC1CC(=O)OC` (stereo not drawn) [MeJA, methyl jasmonate], the “PDF1.2 mRNA accumulation after MeJA treatment” value is “not inducible” in test [1] (mpk4/nahG plants) and “induced” in test [1] (setting [3]). Also, the “induction of PDF1.2 expression” value in test [1] (mpk4 mutant plants, sprayed with 50 μM MeJA, harvested after 48 hours) is reported as “failed to induce”. For the same compound, the “THI2.1 mRNA accumulation after MeJA treatment” value in test [2] (mpk4/nahG plants) was “not inducible”; in test [2] (setting [3]) it was “induced”. In addition, the “induction of THI2.1 expression” value in test [2] (mpk4 mutant plants, sprayed with 50 μM MeJA, harvested after 48 hours, data not shown) is listed as “failed to induce”.

These data come from patent publication US20040172685A1, “Method of using MAPK4 and orthologues thereof to control plant disease resistance and plant growth” (priority 1999, published 2004).
